# In paper PMC11240139, “Exploring the antitumor potential of novel quinoline derivatives via tubulin polymerization inhibition in breast cancer; design, synthesis and molecular docking” (RSC Advances, 2024):
# Assays:
# Assay type in all cases: cell-based
# TK-10 (renal cancer) = assay: NCI-60 SRB cytotoxicity screen; conditions: Homo sapiens; TK-10, single dose 10 μM; read-out: growth inhibition (GI%)
# OVCAR-5 (ovarian cancer) = assay: NCI-60 SRB cytotoxicity screen; conditions: Homo sapiens; OVCAR-5, single dose 10 μM; read-out: growth inhibition (GI%)
# [1] = test system: 60 cancer cell lines (NCI); assay: NCI-60 single-dose screen, overall verdict over the panel; conditions: single dose 10 μM, whole panel
# Experimental: The cytotoxic activity of the synthesized quinoline derivatives was determined by the national cancer institute (NCI, Bethesda, Maryland, USA) against 60 different cancer cell lines at a single high dose (10^−5 M) in the full NCI 60 cell panel using the sulforhodamine B assay for cell viability evaluation. In summary, 5 × 10^3 cells were in 96-well plate and incubated in complete media for 24 h. Cells were treated with 100 μL of media containing each newly synthesized compound. After drug exposure, cells were fixed by replacing media with 150 μL of 10% TCA and incubated at 4 °C for 1 h. The TCA solution was removed, and the cells were washed 5 times with distilled water. Aliquots of 70 μL SRB solution (0.4% w/v) were added and incubated in a dark place at room temperature for 10 min. The plates were washed 3 times with 1% acetic acid and allowed to air-dry overnight. Then, 150 μL of TRIS (10 mM) was added to dissolve protein-bound SRB stain. The absorbance was measured at 540 nm.% Cytotoxicity = [1 − (AVx/AVNC)] × 100where AVx denotes the average absorbance of the sample well and AVNC denotes the average absorbance of the negative control.
# LOX IMVI (melanoma) = assay: NCI-60 SRB cytotoxicity screen; conditions: Homo sapiens, single dose 10 μM, read-out: growth inhibition (GI%)
# SN12C (renal cancer) = assay: NCI-60 SRB cytotoxicity screen; conditions: Homo sapiens, single dose 10 μM, read-out: growth inhibition (GI%)
# CAKI-1 (renal cancer) = assay: NCI-60 SRB cytotoxicity screen; conditions: Homo sapiens; CAKI-1, single dose 10 μM; read-out: growth inhibition (GI%)
# SNB-19 (CNS cancer) = assay: NCI-60 SRB cytotoxicity screen; conditions: Homo sapiens; SNB-19, single dose 10 μM; read-out: growth inhibition (GI%)
# U251 (CNS cancer) = assay: NCI-60 SRB cytotoxicity screen; conditions: Homo sapiens, U-251; U251, single dose 10 μM; read-out: growth inhibition (GI%)
# COLO 205 (colon cancer) = assay: NCI-60 SRB cytotoxicity screen; conditions: Homo sapiens; COLO 205, single dose 10 μM; read-out: growth inhibition (GI%)
# SF-268 (CNS cancer) = assay: NCI-60 SRB cytotoxicity screen; conditions: Homo sapiens; SF-268, single dose 10 μM; read-out: growth inhibition (GI%)
# SW-620 (colon cancer) = assay: NCI-60 SRB cytotoxicity screen; conditions: Homo sapiens; SW-620, single dose 10 μM; read-out: growth inhibition (GI%)
# OVCAR-3 (ovarian cancer) = assay: NCI-60 SRB cytotoxicity screen; conditions: Homo sapiens; OVCAR-3, single dose 10 μM; read-out: growth inhibition (GI%)
# OVCAR-4 (ovarian cancer) = assay: NCI-60 SRB cytotoxicity screen; conditions: Homo sapiens; OVCAR-4, single dose 10 μM; read-out: growth inhibition (GI%)
# HCC-2998 (colon cancer) = assay: NCI-60 SRB cytotoxicity screen; conditions: Homo sapiens; HCC-2998, single dose 10 μM; read-out: growth inhibition (GI%)
# SK-MEL-5 (melanoma) = assay: NCI-60 SRB cytotoxicity screen; conditions: Homo sapiens; SK-MEL-5, single dose 10 μM; read-out: growth inhibition (GI%)
# MDA-MB-435 (melanoma) = assay: NCI-60 SRB cytotoxicity screen; conditions: Homo sapiens, MDA-MB-435, read-out: growth inhibition (GI%);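 also: growth inhibition in percent at a single 10 µM dose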
# [2] = test system: MDA-MB-468 (breast cancer); assay: NCI-60 SRB cytotoxicity screen; conditions: Homo sapiens; MDA-MB-468, single dose 10 μM; read-out: growth inhibition (GI%)
# In short: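 NCI-60 single-dose (10^−5 M) screen in MDA-MB-468 with SRB protein-stain read-out after 48 h exposure; cells TCA-fixed and absorbance read at 540 nm. Reported as GI%, with compounds meeting NCI activity criteria then run at five doses (0.01–100 μM).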
# [3] = test system: NCI-H322M (non-small cell lung cancer); assay: NCI-60 SRB cytotoxicity screen; conditions: Homo sapiens, single dose 10 μM, read-out: growth inhibition (GI%)
# HCT-116 (colon cancer) = assay: NCI-60 SRB cytotoxicity screen; conditions: Homo sapiens; HCT-116, single dose 10 μM; read-out: growth inhibition (GI%)
# DU-145 (prostate cancer) = assay: NCI-60 SRB cytotoxicity screen; conditions: Homo sapiens; DU-145, single dose 10 μM; read-out: growth inhibition (GI%)
# SR (leukemia) = assay: NCI-60 SRB cytotoxicity screen; conditions: single dose 10 μM, read-out: growth inhibition (GI%)
# SK-MEL-2 (melanoma) = assay: NCI-60 SRB cytotoxicity screen; conditions: Homo sapiens; SK-MEL-2, single dose 10 μM; read-out: growth inhibition (GI%)
# M14 (melanoma) = assay: NCI-60 SRB cytotoxicity screen; conditions: Homo sapiens; M14, single dose 10 μM; read-out: growth inhibition (GI%)
# [4] = test system: HOP-92 (non-small cell lung cancer); assay: NCI-60 SRB cytotoxicity screen; conditions: Homo sapiens; HOP-92, single dose 10 μM; read-out: growth inhibition (GI%)
# RXF 393 (renal cancer) = assay: NCI-60 SRB cytotoxicity screen; conditions: Homo sapiens; RXF 393, single dose 10 μM; read-out: growth inhibition (GI%)
compound,measurement,setting,value
"CCc1cccc2cc(-c3cc(-c4ccc(OC)c(OC)c4)[nH]c(=O)c3C#N)c(Cl)nc12 [Compound 4b, 4-(2-Chloro-8-ethylquinolin-3-yl)-6-(3,4-dimethoxyphenyl)-2-oxo-1,2-dihydropyridine-3-carbonitrile]",inhibition at 10 µM,TK-10 (renal cancer),< 10%
same,inhibition at 10 µM,OVCAR-5 (ovarian cancer),< 10%
same,cytotoxic activity over the cell lines (in words),[1],mild cytotoxic activity
same,inhibition at 10 µM,LOX IMVI (melanoma),< 10%
same,inhibition at 10 µM,SN12C (renal cancer),< 10%
same,inhibition at 10 µM,CAKI-1 (renal cancer),39.2%
same,inhibition at 10 µM,SNB-19 (CNS cancer),< 10%
same,inhibition at 10 µM,U251 (CNS cancer),< 10%
same,inhibition at 10 µM,COLO 205 (colon cancer),< 10%
same,inhibition at 10 µM,SF-268 (CNS cancer),16.1%
same,inhibition at 10 µM,SW-620 (colon cancer),< 10%
same,inhibition at 10 µM,OVCAR-3 (ovarian cancer),< 10%
same,inhibition at 10 µM,OVCAR-4 (ovarian cancer),14%
same,inhibition at 10 µM,HCC-2998 (colon cancer),< 10%
same,inhibition at 10 µM,SK-MEL-5 (melanoma),< 10%
same,inhibition at 10 µM,MDA-MB-435 (melanoma),< 10%
same,inhibition at 10 µM,[2],< 10%
same,inhibition at 10 µM,[3],< 10%
same,inhibition at 10 µM,HCT-116 (colon cancer),< 10%
same,inhibition at 10 µM,DU-145 (prostate cancer),< 10%
same,inhibition at 10 µM,SR (leukemia),< 10%
same,inhibition at 10 µM,SK-MEL-2 (melanoma),< 10%
same,inhibition at 10 µM,M14 (melanoma),< 10%
same,inhibition at 10 µM,[4],11.3%
same,inhibition at 10 µM,RXF 393 (renal cancer),33.8%
